The text below walks through data of publication PMC10611578, “Aβ1-6A2V(D) peptide, effective on Aβ aggregation, inhibits tau misfolding and protects the brain after traumatic brain injury” (Molecular Psychiatry, 2023).

One data set has as its target T1, BACE (Homo sapiens, UniProt P56817).
T1 construct: purchased Abcam ab283408
The data set can be described thus: BACE1 Inhibitor Screening Kit in vitro. The settings on record: BACE1 Inhibitor Screening Kit ab283408, 60 min at 37 °C, fluorescence Ex/Em 345/500 nm; read-out: IC50 for inhibition of BACE activity in vitro. In kind it is biochemical. The procedure:
The ability of Aβ1-6A2V(D) to inhibit BACE activity was measured in vitro as described in the BACE1 Inhibitor Screening Kit ab283408 (Abcam, Cambridge, UK). Increasing concentrations of Aβ1-6A2V(D) were employed. Fluorescence was read for 60 min at 37°C at Ex/Em= 345/500 nm using a spectrophotometer (Infinite M200, Tecan, Männedorf, Switzerland). BACE activity was measured in the ipsilateral cortex of 3xTg-AD TBI mice treated with or without the peptide using the β-Secretase Activity Fluorometric Assay Kit MAK237 (Sigma Aldrich, St. Louis, USA). The protein concentration of the samples was analyzed using the BCA assay, as previously described. The samples were diluted to obtain a final concentration of 25 µg proteins/50 µL and then processed according to the kit instructions. Fluorescence was read at Ex/Em = 355/495 nm.
Supplementary Figure 7. Effect of Aβ1-6A2V(D) on the BACE activity. (A) Dose-dependent inhibitory effect of Aβ1-6A2V(D) on BACE activity determined in vitro. (B) BACE activity determined in the brain homogenates of 3xTg-AD TBI mice (N = 3) treated (TBI Aβ1-6A2V(D)) or not (TBI vehicle) with 50 mg/kg b.w. Aβ1-6A2V(D) and sacrificed 24 h after the last administration. Data are mean ± SD, one-way ANOVA, and Bonferroni’s post hoc test.

A further data set has as its system C. elegans. The settings on record: in vivo; cited from earlier work.
Data set [1] in a line: MALDI-TOF imaging brain biodistribution after intranasal administration, TBI mice. It is filed as in vivo, mouse (3xTg-AD. How it is done: The Aβ1-6A2V(D) was administered to 3xTg-AD and 24-month-old WT TBI underwent mice by repeated intranasal administration as described in [39]. In brief, mice were acclimatized for 2 weeks before the surgery and the treatment. Aβ1-6A2V(D) was administered to mice at 50 mg/kg body weight (b.w.) (about 5 µL/nostril/mouse, 10 µL total/each treatment session/mouse) starting at 10 min post-TBI and every 48 h up to 6 days post-injury, using a 20 µL pipette and gel loading pipette tip. At each treatment session, the mice were held in place for 30 seconds after the first 5 µL administration and then left free to move in a cage for 30 seconds before administering the remaining treatment/vehicle. Weight was assessed before each intranasal administration. Neurological functions were monitored longitudinally and plasma levels of neurofilament light (NfL) were assessed at sacrifice as detailed in the Supplementary information (sections ‘Behavioural test’ and ‘Plasmatic neurofilament light’). Seven days after surgery, the mice were sacrificed, the brain was removed, and ipsilateral cortical areas were dissected out, immediately frozen on dry ice, and stored at −80 °C until their use for biochemical and C. elegans studies. At 4 h, 24 h, 48 h, and 72 h after surgery, a subset of mice (n = 3) was sacrificed, and their brains were removed, frozen immediately in liquid nitrogen, and stored at −80 °C until matrix-assisted laser desorption/ionization (MALDI)-imaging analysis. The investigators were blinded to treatment allocation during the assessment of the results.
Fig. 3 Biodistribution of Aβ1-6A2V(D) in brain parenchyma of 3xTg-AD injured mice after intranasal administration. A Mice were subjected to TBI, randomly distributed into two groups, and treated intranasally 10 min post-injury with either a single dose of Aβ1-6A2V(D) (50 mg/kg b.w.) or saline (vehicle). MALDI-imaging analyses were performed 4-h, 24-h, 48-h, and 72-h post-administration. B Representative images of Aβ1-6A2V(D) biodistribution assessed by MALDI-TOF and imaged as a heatmap (red > Aβ1-6A2V(D) concentration > deep purple).
Studies were carried out as described by Catania et al. to confirm that the intranasal administration of Aβ1-6A2V(D) to injured mice allows the efficient distribution of the peptide in the brain tissue. Brains from injured 3xTg-AD mice were used to prepare […] sections (14 μm thickness) at -20°C in a cryostat. Fourteen µm coronal sections of fresh-frozen brains were cut and serially collected from bregma +0.8 mm to -2.7 mm at 700 µm intervals for MALDI analysis and Cresyl violet staining to pair Aβ1-6A2V(D) biodistribution to anatomical structures. […]

The conditions of data set [2]: ref [16]; cited from earlier work.
The subject of data set [3] is tau (P301L mouse brain homogenate). The data set can be described thus: Western blot of total tau level in P301L brain lysate. In kind it is biochemical, human tau with P301L mutation, JNPL3 mice. The settings on record: 50 µM, 2 h at 25 °C, 30 µg protein/100 µL, PBS pH 7.4, DAKO/actin band; mean ± SD, N = 3, p < 0.05. The text has this:
Male JNPL3 mice expressing 0N4R human tau with the P301L mutation (P301L) were obtained from Taconic Biosciences (New York, USA) (Tau Model 2508). Controls were non-transgenic (Non-tg) male mice with the same mixed C57BL/6, DBA/2, SW genetic background as P301L mice. Triple transgenic mice harboring human PS1(M146 V), APP(SW), and MAPT(P301L) transgenes, referred to as 3xTg-AD, were kindly provided by Dr. Oddo [34]. Male and female C57BL/6 J mice, referred to as wild type (WT), were purchased from Envigo (Italy).
Fig. 2 Effect of Aβ1-6A2V-TAT(D) on the toxicity caused in C. elegans by misfolded tau in P301L and TBI brain homogenates. A Brains from P301L mice were homogenized in 10 mM PBS, pH 7.4, and given to worms alone or in the presence of Aβ1-6A2V-TAT(D). B Worms were administered with brain homogenate (30 µg protein/100 worms/100 µL) in the absence or presence of Aβ1-6A2V-TAT(D) (0-200 µM). […] E Representative western blotting showing the total level of tau and tau quantification expressed as the mean volume of the DAKO band immunoreactivity/actin band. […] The reaction was then stopped, and samples were analyzed by western blot. […]
Lysates from brain homogenates of P301L mice (30 µg protein/100 µL) incubated for 2 h at 25°C with 50 µM Aβ1-6A2V-TAT(D), 50 µM Aβ1-6A2V(D), 50 µM TAT or 10 mM PBS, pH 7.4, were analyzed by immunoblotting using 10% SDS-PAGE gel and Western blotting analysis. […]

The next data set concerns Aβ soluble protofibrils. The settings on record: ref [3]; cited from earlier work. The text has this: Alzheimer’s disease (AD) is a double proteinopathy characterized by amyloid-β (Aβ) and tau pathology and is the most common dementia in older adults. Despite enormous efforts that have been made in the last few decades to find effective therapy, there are still few weapons available to fight this disease. […] Since the approval of aducanumab, ...

Square brackets hold non-standard residues; d marks the D form. Peptide text beside a SMILES is read from it.

The IC50 is the concentration that gives 50% inhibition.

T1 sequence (P56817 46-501, species assumed): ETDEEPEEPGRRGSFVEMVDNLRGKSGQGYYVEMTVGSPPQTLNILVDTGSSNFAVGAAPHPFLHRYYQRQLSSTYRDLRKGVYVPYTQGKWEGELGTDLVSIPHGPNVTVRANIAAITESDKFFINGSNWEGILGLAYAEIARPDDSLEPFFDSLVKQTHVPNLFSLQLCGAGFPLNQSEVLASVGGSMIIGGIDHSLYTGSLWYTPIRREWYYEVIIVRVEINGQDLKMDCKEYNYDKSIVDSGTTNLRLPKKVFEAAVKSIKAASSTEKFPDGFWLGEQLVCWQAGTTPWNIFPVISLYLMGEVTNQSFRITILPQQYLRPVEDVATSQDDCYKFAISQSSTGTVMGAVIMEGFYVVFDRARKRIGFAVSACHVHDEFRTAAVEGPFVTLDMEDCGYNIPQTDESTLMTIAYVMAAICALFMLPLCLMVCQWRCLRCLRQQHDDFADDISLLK

For the molecule `CC(C)[C@@H](NC(=O)[C@H](N)CC(=O)O)C(=O)N[C@H](CCC(=O)O)C(=O)N[C@H](Cc1ccccc1)C(=O)N[C@H](CCCNC(=N)N)C(=O)N[C@H](Cc1c[nH]cn1)C(=O)O` [Aβ1-6A2V(D)] (H-[dD][dV][dE][dF][dR][dH]-OH), at BACE, the IC50 turned out to be 126 nM. The “Passage through the worm's membrane” value with C. elegans is recorded as “only in the presence of the TAT sequence, Aβ1-6A2V(D) can pass through the worm’s membrane”. Also, in data set [1] (intranasal 50 mg/kg b.w., 24 h after administration), the “Peptide level in brain areas close to the contusion site, 24 h” value is reported as “high levels of peptide still detectable 24 h after the administration”. Also, the “Presence of peptide in brain regions” value in data set [1] (single intranasal dose 50 mg/kg b.w. 10 min post-injury, 4-h and 24-h) is “present in the cerebral cortex, hippocampus, caudate-putamen, and cerebellum”. Further, in data set [1] (single intranasal dose 50 mg/kg b.w. 10 min post-injury, 72 h after administration), the “Peptide level in brain, 72 h” value was “not detectable”. Besides, in data set [1] (single intranasal dose 50 mg/kg b.w. 10 min post-injury, high levels persisting, although low, up to 48 h), the “Peptide level in ipsi- and contra-lateral hemispheres, up to 48 h” value was “high Aβ1-6A2V(D) levels were detected in the ipsi- and contra-lateral hemispheres that persisted, although at low levels, up to 48 h”. Also, the “Brain distribution after single intranasal administration, AD mouse” value in data set [2] is reported as “distributed in the AD mouse brain”.
For “GRKKRRQRRR [TAT, TAT48-56(D) (…), reference compound]”, the “Total tau protein level in P301L brain homogenate” value in data set [3] is given as “but not TAT alone, significantly reduced the tau protein level”.

B1: Lecanemab: a humanized monoclonal antibody that binds with high affinity to Aβ soluble protofibrils (antibody, chains of the INN, looked up, V domains shown)
VH: EVQLVESGGGLVQPGGSLRLSCSASGFTFSSFGMHWVRQAPGKGLEWVAYISSGSSTIYYGDTVKGRFTISRDNAKNSLFLQMSSLRAEDTAVYYCAREGGYYYGRSYYTMDYWGQGTTVTVSS
VL: DVVMTQSPLSLPVTPGAPASISCRSSQSIVHSNGNTYLEWYLQKPGQSPKLLIYKVSNRFSGVPDRFSGSGSGTDFTLRISRVEAEDVGIYYCFQGSHVPPTFGPGTKLEIK
Turning to B1, in the data set with Aβ soluble protofibrils, the “Binding affinity to Aβ soluble protofibrils” value is “binds with high affinity to Aβ soluble protofibrils”.
